Positions of bridges follow the written chain, without caps; N, C: chain ends. Non-standard residues stand in square brackets, D forms with d. Residues, ends and D or L forms follow the SMILES beside them.
How the values were obtained:
[1] = Acute and 7-day repeat dose toxicity study; assay type: in vivo, rat
Description: That is, all animals remained clinically normal throughout.

[2] = test system: MCP-1 induced calcium flux; experiment: Intracellular calcium flux, MCP-1 as agonist; assay type: cell-based
focal ischemic lesion = experiment: Intraluminal thread model of ischaemia reperfusion injury (MCAo 90 minutes); assay type: in vivo, rats
Experimental: The intraluminal thread (ILT) model is representative of clinical ischaemia reperfusion injury, it gives a focal ischemic lesion and is widely used in the pharmaceutical industry to test candidate compounds for neuroprotective efficacy. Fed, male Sprague Dawley rats (Charles Rivers, approximately 330 g) were anaesthetized with 2% halothane in 70/30 % N2O/O2 and the left middle cerebral artery occluded (MCAo) for 90 minutes using the ILT approach. The MCAo is achieved by the placement of a 3/0 nylon suture into the internal carotid artery and advancing it approximately 18 mm from the carotid bifurcation such that its tip is positioned approximately 1 mm beyond the origin of the MCA. […]
Throughout the surgical period, rectal temperature was monitored and maintained at 37°C with a heated blanket and feedback rectal temperature probe and arterial blood gases were measured prior to and immediately post MCAo. […]
The ischemic damage was assessed by conventional magnetic resonance imaging (T2, diffusion and proton density sequences) on day 1, 2 and 3 post MCAo. […]
After the final MR analysis at 72 hour post ictus the rats were decapitated, the brains removed, stored fresh in cryo-protecting medium at -70°C prior to quantitative immunohistochemical analysis of infiltrating leukocytes (Figure 34). […]

[3] = test system: MIP1α induced human monocyte migration; experiment: Migration of freshly prepared peripheral blood monocytes, MIP1α; assay type: cell-based
Experimental: (§1) Agents may also be screened in a chemotactic assay which employs human neutrophils, eosinophils, mast cells, basophils, platelets, lymphocytes or monocytes. For monocytes, 9 mls of fresh blood are transferred to a tube containing 1 ml of 3.8% sodium citrate, and left at room temperature for 15 minutes. Five mls of this anti-coagulated blood are carefully layered over 3.5 ml Polymorphprep® (Nycomed Pharma, Oslo), and centrifuged at 500 g for 35 minutes per the manufacturer's instructions. The top band at the sample/medium interface contains monocytes. The monocytes are carefully removed with a glass pipette, and reconstituted to the original volume (5 ml). The cells are washed with PBS plus 10% fetal calf serum, and centrifuged at 400 g for 10 minutes. The washing step is repeated three times before the cells are counted. Cells are resuspended at 1 × 10^7 cells/ml in RPMI-1640 + 10% fetal calf serum (FCS). The monocytes are cultured for two days at 37°C in a humidified atmosphere of 5% CO2-
(§2) On day 2, the cells are counted, spun down, and reconstituted to 1 × 10^7 cells/ml in Gey's balanced salt solution + 1 mg/ml bovine serum albumin (BSA). […]

[4] = test system: IL8 induced human monocyte migration; experiment: Migration of freshly prepared peripheral blood monocytes, IL8; assay type: cell-based
Experimental: as §1, §2

[5] = test system: SDF-1α induced human monocyte migration; experiment: Migration of freshly prepared peripheral blood monocytes, SDF-1α; assay type: cell-based
Experimental: as §1, §2

| SMILES | acute toxicity (in words) ([1]; 1 or 10 mg (5-50 mg/kg) i.v.) | 7-day repeat dose toxicity (in words) ([1]; subcutaneous osmotic mini-pump, about 43 µg/hr for 7 days (7.2 mg)) | MCP-1 induced calcium flux (in words) [2] | reduction in the mean infarct volume (focal ischemic lesion; 2 mg/kg bolus, then 0.5 mg/kg/hr i.v. for 72 hours, all time points, p < 0.0001) | neutrophil accumulation in the penumbra of the lesion (in words) (focal ischemic lesion; rat, in vivo) | % inhibition at 100 µM versus MIP1α [3] | % inhibition at 100 µM versus IL8 [4] | % inhibition at 100 µM versus SDF-1α [5] |
| --- | --- | --- | --- | --- | --- | --- | --- | --- |
| CC[C@@H](C)[C@H]1NC(=O)[C@@H](CCC(N)=O)NC(=O)[C@H](N)CSSC[C@H](C(N)=O)NC(=O)[C@@H](CC(C)C)NC(=O)[C@@H](CC(=O)O)NC(=O)[C@H]2CCCN2C(=O)[C@@H](CCCCN)NC(=O)[C@@H](CCC(N)=O)NC(=O)[C@@H](CCCCN)NC(=O)[C@@H](Cc2c[nH]c3ccccc23)NC1=O (H-[dC][dQ][dI][dW][dK][dQ][dK][dP][dD][dL][dC]-NH2; disulfide 1-11) | no clinically detectable changes | no dose dependent or clinically significant changes | did not block | 50% | complete suppression |  |  |  |
| CC[C@H](C)[C@H](NC(=O)[C@H](C)NC(=O)[C@H](CC(=O)O)NC(=O)[C@@H]1CCCN1C(=O)[C@H](CCC(N)=O)NC(=O)[C@H](C)N)C(=O)N[C@@H](CC(N)=O)C(=O)N[C@@H](C)C(=O)N1CCC[C@H]1C(=O)N[C@H](C(=O)N[C@H](C(=O)N[C@@H](CS)C(=O)N[C@@H](CS)C(=O)O)[C@@H](C)O)C(C)C [Peptide 1] (H-AQPDAINAPVTCC-OH; N-terminus and C-terminus assumed) |  |  |  |  |  | n.s. | n.s. | n.s. |

Reference: EP2386565A2, “Compounds and methods to inhibit or augment an inflammatory response” (Cambridge Enterprise Ltd., priority 1999, dated 2000)
